Columns and labels:
Assay in all cases: relative viability (nuclei count vs DMSO), 5 days (fraction); higher = more cells survive
Crizotinib + Luminespib = compound: C[C@@H](Oc1cc(-c2cnn(C3CCNCC3)c2)cnc1N)c1c(Cl)ccc(F)c1Cl [Crizotinib] + CCNC(=O)c1noc(-c2cc(C(C)C)c(O)cc2O)c1-c1ccc(CN2CCOCC2)cc1 [Luminespib] (partner 0.01 µM)
Method in brief: (§1)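 Values are medians from duplicate plates. Each reflects relative viability, defined as the nuclei count of treated wells over that of vehicle wells. Lung cancer cell lines in 1536-well plates were pin-tool dosed one day after seeding with one drug alone or with a fixed anchor-drug dose plus five library-drug doses (not always all listed) in √10 steps, then fixed, stained and imaged at 4× after 5 days.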

Crizotinib + Vorinostat = compound: C[C@@H](Oc1cc(-c2cnn(C3CCNCC3)c2)cnc1N)c1c(Cl)ccc(F)c1Cl [Crizotinib] + O=C(CCCCCCC(=O)Nc1ccccc1)NO [Vorinostat] (partner 1 µM)
Method in brief: as §1

Olaparib + Crizotinib = compound: O=C(c1cc(Cc2n[nH]c(=O)c3ccccc23)ccc1F)N1CCN(C(=O)C2CC2)CC1 [Olaparib] + C[C@@H](Oc1cc(-c2cnn(C3CCNCC3)c2)cnc1N)c1c(Cl)ccc(F)c1Cl [Crizotinib] (partner 1 µM)
Method in brief: as §1

Olaparib + Decitabine = compound: O=C(c1cc(Cc2n[nH]c(=O)c3ccccc23)ccc1F)N1CCN(C(=O)C2CC2)CC1 [Olaparib] + Nc1ncn([C@H]2C[C@H](O)[C@@H](CO)O2)c(=O)n1 [Decitabine] (partner 2 µM)
Method in brief: as §1

RERF-LC-KJ
relative viability (Crizotinib + Luminespib; first compound 0.01 µM): 1.22 | relative viability (Crizotinib + Luminespib; first compound 0.03162 µM): 1.31 | relative viability (Crizotinib + Luminespib; first compound 0.1 µM): 1.29 | relative viability (Crizotinib + Luminespib; first compound 0.3162 µM): 1.21 | relative viability (Crizotinib + Luminespib; first compound 1 µM): 1.21 | relative viability (Crizotinib + Vorinostat; first compound 0.01 µM): 0.695 | relative viability (Crizotinib + Vorinostat; first compound 0.03162 µM): 0.708 | relative viability (Crizotinib + Vorinostat; first compound 0.1 µM): 0.709 | relative viability (Crizotinib + Vorinostat; first compound 0.3162 µM): 0.566 | relative viability (Crizotinib + Vorinostat; first compound 1 µM): 0.773 | relative viability (Olaparib + Crizotinib; first compound 0.08 µM): 0.811 | relative viability (Olaparib + Crizotinib; first compound 0.253 µM): 0.775 | relative viability (Olaparib + Crizotinib; first compound 2.53 µM): 0.911 | relative viability (Olaparib + Crizotinib; first compound 8 µM): 0.755 | relative viability (Olaparib + Decitabine; first compound 0.08 µM): 0.703 | relative viability (Olaparib + Decitabine; first compound 0.253 µM): 0.637 | relative viability (Olaparib + Decitabine; first compound 2.53 µM): 0.558 | relative viability (Olaparib + Decitabine; first compound 8 µM): 0.451

SK-LU-1
relative viability (Crizotinib + Luminespib; first compound 0.01 µM): 0.208 | relative viability (Crizotinib + Luminespib; first compound 0.03162 µM): 0.195 | relative viability (Crizotinib + Luminespib; first compound 0.1 µM): 0.225 | relative viability (Crizotinib + Luminespib; first compound 0.3162 µM): 0.224 | relative viability (Crizotinib + Luminespib; first compound 1 µM): 0.206 | relative viability (Crizotinib + Vorinostat; first compound 0.01 µM): 0.73 | relative viability (Crizotinib + Vorinostat; first compound 0.03162 µM): 0.727 | relative viability (Crizotinib + Vorinostat; first compound 0.1 µM): 0.71 | relative viability (Crizotinib + Vorinostat; first compound 0.3162 µM): 0.801 | relative viability (Crizotinib + Vorinostat; first compound 1 µM): 0.761 | relative viability (Olaparib + Crizotinib; first compound 0.08 µM): 1.15 | relative viability (Olaparib + Crizotinib; first compound 0.253 µM): 0.774 | relative viability (Olaparib + Crizotinib; first compound 2.53 µM): 0.801 | relative viability (Olaparib + Crizotinib; first compound 8 µM): 0.621 | relative viability (Olaparib + Decitabine; first compound 0.08 µM): 0.476 | relative viability (Olaparib + Decitabine; first compound 0.253 µM): 0.484 | relative viability (Olaparib + Decitabine; first compound 2.53 µM): 0.504 | relative viability (Olaparib + Decitabine; first compound 8 µM): 0.452

SK-MES-1
relative viability (Crizotinib + Luminespib; first compound 0.01 µM): 0.669 | relative viability (Crizotinib + Luminespib; first compound 0.03162 µM): 0.827 | relative viability (Crizotinib + Luminespib; first compound 0.1 µM): 0.771 | relative viability (Crizotinib + Luminespib; first compound 0.3162 µM): 0.712 | relative viability (Crizotinib + Luminespib; first compound 1 µM): 0.76 | relative viability (Crizotinib + Vorinostat; first compound 0.01 µM): 0.993 | relative viability (Crizotinib + Vorinostat; first compound 0.03162 µM): 1.11 | relative viability (Crizotinib + Vorinostat; first compound 0.1 µM): 1.09 | relative viability (Crizotinib + Vorinostat; first compound 0.3162 µM): 0.981 | relative viability (Crizotinib + Vorinostat; first compound 1 µM): 1.07 | relative viability (Olaparib + Crizotinib; first compound 0.08 µM): 0.982 | relative viability (Olaparib + Crizotinib; first compound 0.253 µM): 0.89 | relative viability (Olaparib + Crizotinib; first compound 2.53 µM): 0.885 | relative viability (Olaparib + Crizotinib; first compound 8 µM): 0.668 | relative viability (Olaparib + Decitabine; first compound 0.08 µM): 0.305 | relative viability (Olaparib + Decitabine; first compound 0.253 µM): 0.299 | relative viability (Olaparib + Decitabine; first compound 2.53 µM): 0.303 | relative viability (Olaparib + Decitabine; first compound 8 µM): 0.262

SW 1573
relative viability (Crizotinib + Luminespib; first compound 0.01 µM): 0.132 | relative viability (Crizotinib + Luminespib; first compound 0.03162 µM): 0.342 | relative viability (Crizotinib + Luminespib; first compound 0.1 µM): 0.253 | relative viability (Crizotinib + Luminespib; first compound 0.3162 µM): 0.405 | relative viability (Crizotinib + Luminespib; first compound 1 µM): 0.236 | relative viability (Crizotinib + Vorinostat; first compound 0.01 µM): 0.824 | relative viability (Crizotinib + Vorinostat; first compound 0.03162 µM): 0.947 | relative viability (Crizotinib + Vorinostat; first compound 0.1 µM): 0.729 | relative viability (Crizotinib + Vorinostat; first compound 0.3162 µM): 0.55 | relative viability (Crizotinib + Vorinostat; first compound 1 µM): 0.671 | relative viability (Olaparib + Crizotinib; first compound 0.08 µM): 0.788 | relative viability (Olaparib + Crizotinib; first compound 0.253 µM): 0.768 | relative viability (Olaparib + Crizotinib; first compound 2.53 µM): 0.601 | relative viability (Olaparib + Crizotinib; first compound 8 µM): 0.57 | relative viability (Olaparib + Decitabine; first compound 0.08 µM): 0.32 | relative viability (Olaparib + Decitabine; first compound 0.253 µM): 0.301 | relative viability (Olaparib + Decitabine; first compound 2.53 µM): 0.16 | relative viability (Olaparib + Decitabine; first compound 8 µM): 0.139

UMC-11
relative viability (Crizotinib + Luminespib; first compound 0.01 µM): 0.898 | relative viability (Crizotinib + Luminespib; first compound 0.03162 µM): 1.1 | relative viability (Crizotinib + Luminespib; first compound 0.1 µM): 0.885 | relative viability (Crizotinib + Luminespib; first compound 0.3162 µM): 0.965 | relative viability (Crizotinib + Luminespib; first compound 1 µM): 1.12 | relative viability (Crizotinib + Vorinostat; first compound 0.01 µM): 0.271 | relative viability (Crizotinib + Vorinostat; first compound 0.03162 µM): 0.424 | relative viability (Crizotinib + Vorinostat; first compound 0.1 µM): 0.407 | relative viability (Crizotinib + Vorinostat; first compound 0.3162 µM): 0.356 | relative viability (Crizotinib + Vorinostat; first compound 1 µM): 0.427 | relative viability (Olaparib + Crizotinib; first compound 0.08 µM): 0.757 | relative viability (Olaparib + Crizotinib; first compound 0.253 µM): 0.502 | relative viability (Olaparib + Crizotinib; first compound 2.53 µM): 0.492 | relative viability (Olaparib + Crizotinib; first compound 8 µM): 0.265 | relative viability (Olaparib + Decitabine; first compound 0.08 µM): 0.497 | relative viability (Olaparib + Decitabine; first compound 2.53 µM): 0.405 | relative viability (Olaparib + Decitabine; first compound 8 µM): 0.4

Reference: the supplement of paper PMC10307832
